Test results taken from patent publication US10556936B2, “Immunogenic proteins and fragments thereof from allergenic mites” (ALK-ABELLÓ A/S, priority 2016, dated 2020).

System: HDM-specific T cells expanded from PBMCs of HDM-allergic individuals
Experiment: T cell reactivity of peptides: IFN/IL-5 ELISPOT on in vitro expanded HDM-specific T cells
Assay type: cell-based, human
Conditions: for SFC/donor: individual peptides 10 μg/mL; for % responder: percentage of donors that produced a response against the peptide, 10 μg/mL
Experimental: Each sequence of an “L” cluster was aligned separately using the MEGA software tool with ClustalW. Fifteen-mer peptides overlapping by 10 amino acids were generated and the last 15-mer peptide was added when the sequence length was not divisible by 5, 14,783 unique peptides remained.
HLA class II binding predictions optimized for global coverage were performed for the seven class II alleles (HLA-DRB1*03:01, HLA-DRB1*07:01, HLA-DRB1*15:01, HLA-DRB3*01:01, HLA-DRB3*02:02, HLA-DRB4*01:01 and HLA-DRB5*01:01) using the standalone version of the IEDB class II binding prediction tool. The median consensus percentile rank was estimated from the consensus percentile ranks for the seven alleles. Further, peptides with more than ten overlapping amino acids, which appeared because several occurrences of some sequence regions were repeated multiple times in the same sequence, were eliminated (e.g. “[…]” was repeated seven times in one sequence.) Variant peptides were also removed, retaining the better peptide based on the median consensus percentile rank and conservation among the sequences within its respective cluster. Peptides with median consensus percentile rank ≤10.0 and conserved in ≥35% of sequences in the same cluster were finally selected, also including additional selected peptides chosen to maximize DRB1 allele coverage, for a grand total of 2,589 peptides.
Peptides were purchased from Mimotopes (Clayton, Victoria, Australia) or A and A (San Diego, Calif.) as crude material on a small (1-mg) scale. Individual peptides were resuspended in DMSO at a final concentration of 40 mg/mL. Peptide “megapools” of 30-65 peptides/pool were generated. Following lyophilization, each pool was reconstituted in DMSO so that each peptide was present at a concentration of 4 mg/mL. To facilitate deconvolution of positive megapools, each megapool was further broken down in 2-6 “mesopools” (259 mesopools in total), each containing 8-14 peptides. Each mesopool was then deconvoluted to identify individual positive peptides. To avoid dimerization and polymerization of peptides by intra- and intermolecular disulfide bond formation between cysteine residues, this amino acid were in some instances substituted by a serine residue in the peptides. Such peptides are herein marked with an asterisk (*).
PBMCs from European HDM-allergic individuals were recruited in the Copenhagen region (defined by clinical history of allergy to house dust mite and specific IgE to group 1 and group 2 major allergens from Der p and/or Der f and with measured specific IgE (CAP) >0.7 kU/L towards Der p/f 1 or Der p/f 2. In addition, PBMCs from 10 US HDM-allergic individuals were recruited in San Diego (defined by Der p extract IgE titers greater than 0.35 kUA/L). PBMCs were isolated from whole blood by density gradient centrifugation according to manufacturers' instructions (Ficoll-Hypaque, Amersham Biosciences, Uppsala, Sweden). Der p- and Der f-specific extract IgE titers were determined using the ImmunoCAP system (Thermo Fisher, Uppsala, Sweden). In a separate series of experiments, pooled plasma from 10 European and 10 American HDM atopic individuals from the San Diego region, respectively, was utilized to run 2D immunoblots to elucidate IgE and IgG reactivity towards the proteins, which had at least one peptide with positive T cell response.
HDM-specific T cells were expanded in vitro. Briefly, PBMCs from HDM-allergic individuals were stimulated with HDM extract (5 μg/mL) and expanded over 14-17 days with IL-2 (added every 3 days). Cells were harvested on day 14, restimulated with HDM extract (5 μg/mL), individual peptides (10 μg/mL) or peptide pools (5 μg/mL) and screened for […]/IL-5-production by ELISPOT. Criteria for positivity were 100 or 20 spot forming cells (SFCs) per 10^6 PBMCs for peptide pools or single peptides, respectively, p<0.05, and a stimulation index >2.

Substance | SFC/donor [SFC/donor] | % responder [%]
144 (RYHKMHLFGEMTMNI; Immunogenic fragment) [compound 144] | 10 | 10
145 (PPKPELLVIDTELGR; Immunogenic fragment) [compound 145] | 228 | 30
146 (LLVIDTELGRLGMQI; Immunogenic fragment) [compound 146] | 54 | 20
147 (LGMQICFDMIFKTPG; Immunogenic fragment) [compound 147] | 28 | 20
148 (TWWFDEAPMLSSSQY; Immunogenic fragment) [compound 148] | 21 | 10
149 (SSSQYQMAWAFGNNV; Immunogenic fragment) [compound 149] | 12 | 10
150 (ELNSRFVYAKLRGAF; Immunogenic fragment) [compound 150] | 21 | 5
151 (FVYAKLRGAFSESTA; Immunogenic fragment) [compound 151] | 9 | 5
152 (LRGAFSESTAVYPSA; Immunogenic fragment) [compound 152] | 5 | 5
DWRNLYPRKYAFALP (Immunogenic fragment) [Peptide 186, fragment of A0023 Der f] | 64 | 5
EARENYITFTEPFMI (Immunogenic fragment) [Peptide 179, fragment of A0023 Der f/p] | 5 | 5
EPFMINQLAALIRRE (Immunogenic fragment) [Peptide 181, fragment of A0023 Der f/p] | 40 | 10
GYAFIMESSSAEHEI (Immunogenic fragment) [Peptide 184, fragment of A0023 Der f] | 16 | 10
HKPIILGTLRNGATN (Immunogenic fragment) [Peptide 182, fragment of A0023 Der f] | 175 | 10
KDSQYLQHFNNAIKQ (Immunogenic fragment) [Peptide 188, fragment of A0023 Der f] | 24 | 10
LGTLRNGATNHFLSK (Immunogenic fragment) [Peptide 183, fragment of A0023 Der f] | 163 | 20
LQHFNNAIKQLNTED (Immunogenic fragment) [Peptide 189, fragment of A0023 Der f] | 24 | 10
LTMLLDWRNLYPRKY (Immunogenic fragment) [Peptide 185, fragment of A0023 Der f] | 15 | 5
SLRGVTIRNAPFLEE (Immunogenic fragment) [Peptide 178, fragment of A0023 Der f] | 42 | 10
YITFTEPFMINQLAA (Immunogenic fragment) [Peptide 180, fragment of A0023 Der f/p] | 29 | 10
YPRKYAFALPKDSQY (Immunogenic fragment) [Peptide 187, fragment of A0023 Der f] | 25 | 10
